The values below come from US20250171420A1 (Monte Rosa Therapeutics, Inc., priority 2022, published 2025).

The target in one experiment is T1, CK1α (Homo sapiens, UniProt P48729).
T1 construct: HEK293 clonal lines with CRISPR KI HiBiT tag on CSNK1A1
Description: CK1α NanoBit Assay (HiBiT-tagged CSNK1A1, HEK293 clonal lines). It counts as cell-based. The note with it: HEK293 HiBiT-CSNK1A1/LgBiT cells, 24 h incubation. The procedure, abridged:
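HEK293 clones carrying a CRISPR knock-in HiBiT tag on CSNK1A1 and stably expressing LgBiT are treated with compound for 24 hours at 37° C, 5% CO2, then read by luminescence. Response is normalized as 100*(S−N)/(P−N) against plate negative and positive controls, and DC50 values are derived.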
A general note: The HiBiT peptide binds its large partner to form an active luciferase.

Another experiment addresses CRBN/DDB1 (Homo sapiens, UniProt Q96SW2). Kind of experiment: HTRF binding assay (displacement of Cy5-thalidomide probe from CRBN/DDB1). The conditions noted are these: CRBN/DDB1 2.5 nM, Cy5-Thalidomide 100 nM, 30 min; geometric mean; read-out: HTRF_Thali_Disp_DR_geo_IC50. An excerpt: Binding of test compounds to CRBN/DDB1 was monitored in an HTRF assay using 1-[5-({2-[2-(2-{[2-(2,6-dioxopiperidin-3-yl)-1,3-dioxo-2,3-dihydro-1H-isoindol-4-yl]oxy}acetamido)ethoxy]ethyl}carbamoyl)pentyl]-3,3-dimethyl-2-[(1E,3E)-5-[(2E)-1,3,3-trimethyl-5-sulfo-2,3-dihydro-1H-indol-2-ylidene]penta-1,3-dien-1-yl]-3H-indol-1-ium-5-sulfonate as a fluorescent probe. In this assay, compounds displace the fluorescently labeled thalidomide-based probe bound to CRBN and fluorescence is monitored with increasing compound concentration. Assays were conducted in Greiner white 384 well HiBase plates (Cat. No 784075-25) in 10 μL total volume. A one pot detection solution of CRBN/DDB1 (2.5 nM), anti-His Terbium Cryptate Gold (1×, PerkinElmer Cat. #: 61HI2TLB), and Cy5-Thalidomide (100 nM, Tenova Cat.: T52461) was prepared in 20 mM HEPES, 20 mM NaCl, 0.2 mM TCEP, 0.2 mM EDTA, and 0.005% Tween20 was dispensed to each assay plate. Test compounds were stored in dry, ambient temperatures at 10 mM. A 10-point, 1:3 dilution series was prepared from 10 mM stock concentrations in Echo-compatible LDV plates. 10 nL of each compound dilution series was dispensed into assays wells using an Echo 650 (Labcyte inc. USA). 10 nL of 10 mM lenalidomide (Selleckchem Cat no. S1029) was transferred into the active-control wells for the assay and 10 nL of DMSO was transferred into the negative control wells. The assay was then allowed to incubate for 30 min at ambient temperature after transferring the test compounds. Plate measurements were taken on a Pherastar FSX (BMG Labtech, Germany) using the HTRF Red filter (Ex. 337 nm, em1: 620 nm, em2: 665 nm) (Flashes: 50, Integration time: 60-400 μs, Z-height: 10 mm, Ratio-multiplier: 10,000). Analysis, HTRF ratio and IC50 values were derived using KNIME analytics (KNIME Zurich) transformation and fitting within Collaborative Drug Discovery (Collaborative Drug Discovery USA) using a 4-parameter logistic fit. HTRF ratio calculation was performed using the following formula: […]
where Y represents the HTRF ratio response (as defined previously), X the compound concentration in μM, Ymin the minimum response plateau, Ymax the maximum response plateau, IC50 the concentration of agonist that gives a response half way between Ymin and Ymax and HillSlope the steepness of the family of curves. No fitting model constraints was applied on Ymin, or Ymax whilst IC50>0 and −0.5>HillSlope>−3
Ki values were derived from the geometric mean of the IC50 values using the Cheng-Prusoff transformation:
where [L] represents the concentration of fluorescent probe in μM, Kd the affinity (binding constant) of the fluorescent probe in units of μM and IC50 the concentration of agonist that gives a response halfway between Ymin and Ymax (as described in 1.2.1)
Analysis and IC50 values were derived using KNIME analytics (KNIME, Zurich) transformation and fitting within Collaborative Drug Discovery (Collaborative Drug Discovery, USA) as described in 1.2.1. Ki values were derived from the geometric mean of the IC50 values using the Cheng-Prusoff transformation as described in 2.2.2. Data was visualized in GraphPad Prism 8.1.2 (GraphPad, USA) and reported as mean and standard deviation. Microsoft Office Excel 2012 (Redmond, WA) was used for calculation of mean and standard deviation.
IC50 data are reported in Table 3 for compounds in Table 1. In Table 3 below, According to the code, A represents a IC50 value of ≤0.1 μM, B represents a IC50 value>0.1 μM and ≤1 μM, C represents an IC50 value>1 μM.
For orientation: In TR-FRET formats the signal depends on donor and acceptor labels being close together.

pIC50: −log10 of the molar value. Some results are limits rather than exact numbers.

T1 sequence (P48729 whole entry): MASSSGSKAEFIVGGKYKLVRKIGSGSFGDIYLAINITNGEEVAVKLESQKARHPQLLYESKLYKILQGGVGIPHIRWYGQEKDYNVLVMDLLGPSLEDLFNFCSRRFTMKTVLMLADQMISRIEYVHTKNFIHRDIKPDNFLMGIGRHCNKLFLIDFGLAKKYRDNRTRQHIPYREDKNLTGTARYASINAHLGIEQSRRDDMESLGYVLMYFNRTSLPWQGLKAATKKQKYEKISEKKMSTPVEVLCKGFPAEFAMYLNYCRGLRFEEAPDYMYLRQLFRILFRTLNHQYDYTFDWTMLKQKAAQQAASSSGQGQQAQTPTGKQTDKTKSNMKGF
T1 sequence (Q96SW2 whole entry, further chain): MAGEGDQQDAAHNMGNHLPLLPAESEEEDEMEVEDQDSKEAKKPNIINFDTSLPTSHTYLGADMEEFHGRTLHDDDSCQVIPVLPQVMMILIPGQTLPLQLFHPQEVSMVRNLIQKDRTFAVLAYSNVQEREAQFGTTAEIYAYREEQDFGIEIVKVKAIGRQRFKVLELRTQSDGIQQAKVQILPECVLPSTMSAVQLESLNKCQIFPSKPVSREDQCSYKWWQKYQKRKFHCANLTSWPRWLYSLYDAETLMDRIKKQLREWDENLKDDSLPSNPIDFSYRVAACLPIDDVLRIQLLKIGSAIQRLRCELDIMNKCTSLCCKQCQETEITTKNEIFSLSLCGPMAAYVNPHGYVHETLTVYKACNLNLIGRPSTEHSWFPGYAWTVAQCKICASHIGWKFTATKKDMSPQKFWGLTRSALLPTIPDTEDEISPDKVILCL
T1 sequence (Q16531 2-1140 partner limits assumed): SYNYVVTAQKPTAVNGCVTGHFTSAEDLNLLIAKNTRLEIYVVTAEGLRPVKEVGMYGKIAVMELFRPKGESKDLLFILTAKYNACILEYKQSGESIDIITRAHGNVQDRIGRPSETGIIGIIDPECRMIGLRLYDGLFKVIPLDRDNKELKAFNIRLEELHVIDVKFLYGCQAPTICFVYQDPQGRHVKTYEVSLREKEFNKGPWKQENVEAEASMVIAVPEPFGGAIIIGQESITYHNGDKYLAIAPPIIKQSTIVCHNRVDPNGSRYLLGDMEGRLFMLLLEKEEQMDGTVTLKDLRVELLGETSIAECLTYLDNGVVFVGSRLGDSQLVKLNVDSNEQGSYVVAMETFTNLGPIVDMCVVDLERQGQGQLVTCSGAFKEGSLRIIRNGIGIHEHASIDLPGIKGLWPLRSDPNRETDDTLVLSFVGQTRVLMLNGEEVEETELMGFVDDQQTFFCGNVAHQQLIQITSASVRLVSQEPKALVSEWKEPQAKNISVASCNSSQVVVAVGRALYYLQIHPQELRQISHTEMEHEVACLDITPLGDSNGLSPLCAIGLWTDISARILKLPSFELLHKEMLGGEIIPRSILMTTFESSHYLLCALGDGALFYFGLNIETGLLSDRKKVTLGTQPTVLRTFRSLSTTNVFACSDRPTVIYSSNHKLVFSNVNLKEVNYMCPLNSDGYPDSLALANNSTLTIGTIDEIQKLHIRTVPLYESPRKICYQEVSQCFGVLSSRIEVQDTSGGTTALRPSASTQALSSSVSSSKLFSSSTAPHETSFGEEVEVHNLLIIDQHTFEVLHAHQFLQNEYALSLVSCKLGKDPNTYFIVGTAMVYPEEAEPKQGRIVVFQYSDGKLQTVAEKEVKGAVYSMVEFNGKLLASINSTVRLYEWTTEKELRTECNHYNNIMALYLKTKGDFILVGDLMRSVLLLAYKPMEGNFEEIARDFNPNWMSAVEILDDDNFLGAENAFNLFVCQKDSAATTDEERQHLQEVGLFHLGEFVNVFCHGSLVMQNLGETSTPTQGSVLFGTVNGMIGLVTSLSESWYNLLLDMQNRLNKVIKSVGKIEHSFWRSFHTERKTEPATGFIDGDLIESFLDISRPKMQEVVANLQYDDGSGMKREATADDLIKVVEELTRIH
Sequence of CRBN/DDB1 (Q96SW2 whole entry, species assumed): as the sequence (Q96SW2 whole entry, further chain) above
Sequence of CRBN/DDB1 (Q16531 whole entry partner, species assumed): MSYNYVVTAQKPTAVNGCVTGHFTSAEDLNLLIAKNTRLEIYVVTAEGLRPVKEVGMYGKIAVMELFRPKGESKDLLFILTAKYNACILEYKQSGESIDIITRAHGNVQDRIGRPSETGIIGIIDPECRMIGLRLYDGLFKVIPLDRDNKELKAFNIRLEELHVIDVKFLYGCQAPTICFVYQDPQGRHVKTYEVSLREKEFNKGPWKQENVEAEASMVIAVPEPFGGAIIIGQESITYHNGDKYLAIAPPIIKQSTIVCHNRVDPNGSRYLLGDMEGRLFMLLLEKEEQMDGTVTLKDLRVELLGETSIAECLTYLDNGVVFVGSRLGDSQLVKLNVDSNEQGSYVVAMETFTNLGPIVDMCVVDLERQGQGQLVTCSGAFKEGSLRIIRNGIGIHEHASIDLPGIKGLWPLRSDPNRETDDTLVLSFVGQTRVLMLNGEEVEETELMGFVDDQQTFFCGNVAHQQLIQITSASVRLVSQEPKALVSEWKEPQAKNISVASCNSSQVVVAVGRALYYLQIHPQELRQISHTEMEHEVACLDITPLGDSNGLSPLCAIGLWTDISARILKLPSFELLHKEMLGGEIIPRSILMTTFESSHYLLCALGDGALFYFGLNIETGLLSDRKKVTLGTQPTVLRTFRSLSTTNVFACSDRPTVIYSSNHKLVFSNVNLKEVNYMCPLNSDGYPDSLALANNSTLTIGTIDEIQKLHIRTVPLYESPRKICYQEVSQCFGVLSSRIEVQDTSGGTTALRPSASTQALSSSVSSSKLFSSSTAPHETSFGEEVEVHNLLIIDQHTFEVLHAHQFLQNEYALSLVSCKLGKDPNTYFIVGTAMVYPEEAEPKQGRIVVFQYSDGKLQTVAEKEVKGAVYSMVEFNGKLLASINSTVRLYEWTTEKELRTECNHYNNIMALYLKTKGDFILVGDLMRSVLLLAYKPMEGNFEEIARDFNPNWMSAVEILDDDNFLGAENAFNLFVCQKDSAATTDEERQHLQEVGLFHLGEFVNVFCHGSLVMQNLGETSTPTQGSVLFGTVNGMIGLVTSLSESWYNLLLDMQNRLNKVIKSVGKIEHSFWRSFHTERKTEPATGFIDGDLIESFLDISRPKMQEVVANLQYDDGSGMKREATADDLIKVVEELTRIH

For `O=C1CCC(N2Cc3cc(NC(=O)N4CCc5cc(C6COC6)ccc54)ccc3C2=O)C(=O)N1` (stereo not shown) [Compound 346, N-(2-(2,6-dioxopiperidin-3-yl)-1-oxoisoindolin-5-yl)-5-(oxetan-3-yl)indoline-1-carboxamide], the DC50 on CK1α was under 0.1 µM. Besides, at CRBN/DDB1, the pIC50 is over 7.00.

`O=C1CCC(N2Cc3cc(NC(=O)N4CCc5cc(C6CCOC6)ccc54)ccc3C2=O)C(=O)N1` (stereo not shown) [Compound 345, N-(2-(2,6-dioxopiperidin-3-yl)-1-oxoisoindolin-5-yl)-5-(tetrahydrofuran-3-yl)indoline-1-carboxamide] gave a DC50 on CK1α of under 0.1 µM. For the same compound, the pIC50 on CRBN/DDB1 is over 7.00.

Regarding `O=C1CCC(N2Cc3cc(NC(=O)N4CCc5ccc(-n6cccn6)cc54)ccc3C2=O)C(=O)N1` (stereo not shown) [Compound 290], the DC50 at CK1α is under 0.1 µM. The pIC50 at CRBN/DDB1 was 6.00 to 7.00.

Compound `COCc1ccc2c(c1)CCN2C(=O)Nc1ccc2c(c1)CN(C1CCC(=O)NC1=O)C2=O` (stereo not shown) [Compound 330, N-(2-(2,6-dioxopiperidin-3-yl)-1-oxoisoindolin-5-yl)-5-(methoxymethyl)indoline-1-carboxamide] had a DC50 at CK1α of under 0.1 µM. For the same compound, the pIC50 at CRBN/DDB1 was 6.00 to 7.00.

On to `O=C1CC[C@H](N2Cc3cc(NC(=O)N4c5ccccc5C[C@@H]4C(F)(F)F)ccc3C2=O)C(=O)N1` (single isomer, unassigned) [Compound 362], for which the DC50 on CK1α is under 0.1 µM. Moreover, the pIC50 at CRBN/DDB1 was 6.00 to 7.00.

In turn, `COC[C@@H]1Cc2c(cccc2C(F)(F)F)N1C(=O)Nc1ccc2c(c1)CN(C1CCC(=O)NC1=O)C2=O` (stereo partly drawn) [Compound 325, (2S)—N-(2-(2,6-dioxopiperidin-3-yl)-1-oxoisoindolin-5-yl)-2-(methoxymethyl)-4-(trifluoromethyl)indoline-1-carboxamide] returned a DC50 on CK1α of under 0.1 µM. The pIC50 on CRBN/DDB1 was 6.00 to 7.00.

`C[C@@H]1Cc2c(F)cccc2N1C(=O)Nc1ccc2c(c1)CN(C1CCC(=O)NC1=O)C2=O` (stereo partly drawn) [Compound 354, (2R)—N-(2-(2,6-dioxopiperidin-3-yl)-1-oxoisoindolin-5-yl)-4-fluoro-2-methylindoline-1-carboxamide] came in with a DC50 on CK1α of under 0.1 µM. On CRBN/DDB1, the pIC50 was 6.00 to 7.00.

Regarding `O=C1CCC(N2Cc3cc(NC(=O)N4c5cccc(F)c5C[C@H]4COCC(F)(F)F)ccc3C2=O)C(=O)N1` (stereo partly drawn) [Compound 300, (2S)—N-(2-(2,6-dioxopiperidin-3-yl)-1-oxoisoindolin-5-yl)-4-fluoro-2-((2,2,2-trifluoroethoxy)methyl)indoline-1-carboxamide], the DC50 on CK1α was under 0.1 µM. In addition, the pIC50 on CRBN/DDB1 was 6.00 to 7.00.

Consider `COCC1Cc2cc(C(F)(F)F)ncc2N1C(=O)Nc1ccc2c(c1)CN(C1CCC(=O)NC1=O)C2=O` (stereo not shown) [Compound 321, N-(2-(2,6-dioxopiperidin-3-yl)-1-oxoisoindolin-5-yl)-2-(methoxymethyl)-5-(trifluoromethyl)-2,3-dihydro-1H-pyrrolo[2,3-c]pyridine-1-carboxamide], for which the DC50 at CK1α is under 0.1 µM. Further, at CRBN/DDB1, the pIC50 was 6.00 to 7.00.

`O=C1CC[C@@H](N2Cc3cc(NC(=O)N4c5ccccc5C[C@H]4C(F)(F)F)ccc3C2=O)C(=O)N1` (single isomer, unassigned) [Compound 359] displayed a DC50 on CK1α of under 0.1 µM. The pIC50 at CRBN/DDB1 was under 6.00.

With `O=C1CCC(N2Cc3cc(NC(=O)N4CC(c5ccccc5)C4)ccc3C2=O)C(=O)N1` (stereo not shown) [Compound 111, N-(2-(2,6-dioxopiperidin-3-yl)-1-oxoisoindolin-5-yl)-3-phenylazetidine-1-carboxamide], the DC50 on CK1α fell in the range of 0.1 to 1 µM. The pIC50 at CRBN/DDB1 was 6.00 to 7.00.

With `COCC1c2cc(C)ccc2CN1C(=O)Nc1ccc2c(c1)CN(C1CCC(=O)NC1=O)C2=O` (stereo not shown) [Compound 336, N-(2-(2,6-dioxopiperidin-3-yl)-1-oxoisoindolin-5-yl)-1-(methoxymethyl)-6-methylisoindoline-2-carboxamide], at CK1α, the DC50 is under 0.1 µM. For the same compound, on CRBN/DDB1, the pIC50 is 6.00 to 7.00.

For the compound `O=C1CCC(N2Cc3cc(NC(=O)N4CCc5ccncc54)ccc3C2=O)C(=O)N1` (stereo not shown) [Compound 105, N-(2-(2,6-dioxopiperidin-3-yl)-1-oxoisoindolin-5-yl)-2,3-dihydro-1H-pyrrolo[2,3-c]pyridine-1-carboxamide], the DC50 at CK1α was under 0.1 µM. On CRBN/DDB1, the pIC50 is 6.00 to 7.00.

On to `COC[C@H]1Cc2ccccc2N1C(=O)Nc1ccc2c(c1)CN(C1CCC(=O)NC1=O)C2=O` (stereo partly drawn) [Compound 352, (2R)—N-(2-(2,6-dioxopiperidin-3-yl)-1-oxoisoindolin-5-yl)-2-(methoxymethyl)indoline-1-carboxamide], for which, at CK1α, the DC50 was under 0.1 µM. Also, on CRBN/DDB1, the pIC50 was 6.00 to 7.00.

With `CC1Cc2cc(C(F)(F)F)ncc2N1C(=O)Nc1ccc2c(c1)CN(C1CCC(=O)NC1=O)C2=O` (stereo not shown) [Compound 353, N-(2-(2,6-dioxopiperidin-3-yl)-1-oxoisoindolin-5-yl)-2-methyl-5-(trifluoromethyl)-2,3-dihydro-1H-pyrrolo[2,3-c]pyridine-1-carboxamide], on CK1α, the DC50 is under 0.1 µM. Further, at CRBN/DDB1, the pIC50 was 6.00 to 7.00.

Turning to `CC(C)C1CN(C(=O)Nc2ccc3c(c2)CN(C2CCC(=O)NC2=O)C3=O)c2ccccc21` (stereo not shown) [Compound 203, N-(2-(2,6-dioxopiperidin-3-yl)-1-oxoisoindolin-5-yl)-3-isopropylindoline-1-carboxamide], the DC50 on CK1α is under 0.1 µM. Moreover, the pIC50 on CRBN/DDB1 is 6.00 to 7.00.

For `C[C@@H]1Cc2cccc(F)c2N1C(=O)Nc1ccc2c(c1)CN(C1CCC(=O)NC1=O)C2=O` (stereo partly drawn) [Compound 350, (2R)—N-(2-(2,6-dioxopiperidin-3-yl)-1-oxoisoindolin-5-yl)-7-fluoro-2-methylindoline-1-carboxamide], on CK1α, the DC50 was under 0.1 µM. The pIC50 on CRBN/DDB1 is 6.00 to 7.00.

Regarding `Cc1cc(C)c2c(c1)N(C(=O)Nc1ccc3c(c1)CN(C1CCC(=O)NC1=O)C3=O)CC2` (stereo not shown) [Compound 209], the DC50 on CK1α was under 0.1 µM. Besides, on CRBN/DDB1, the pIC50 is 6.00 to 7.00.

On to `COCC1c2cc(C(F)(F)F)ccc2CN1C(=O)Nc1ccc2c(c1)CN(C1CCC(=O)NC1=O)C2=O` (stereo not shown) [Compound 301], for which the DC50 on CK1α was under 0.1 µM. Further, at CRBN/DDB1, the pIC50 was 6.00 to 7.00.

The compound `COCC1c2ccc(C)cc2CN1C(=O)Nc1ccc2c(c1)CN(C1CCC(=O)NC1=O)C2=O` (stereo not shown) [Compound 331, N-(2-(2,6-dioxopiperidin-3-yl)-1-oxoisoindolin-5-yl)-1-(methoxymethyl)-5-methylisoindoline-2-carboxamide] yielded a DC50 at CK1α of under 0.1 µM. The pIC50 at CRBN/DDB1 is 6.00 to 7.00.

In the case of `O=C1CCC(N2Cc3cc(NC(=O)N4CCOc5ccccc54)ccc3C2=O)C(=O)N1` (stereo not shown) [Compound 285, N-(2-(2,6-dioxopiperidin-3-yl)-1-oxoisoindolin-5-yl)-2H-benzo[b][1,4]oxazine-4(3H)-carboxamide], the DC50 at CK1α was in the range of 0.1 to 1 µM. Also, the pIC50 at CRBN/DDB1 is 6.00 to 7.00.

`O=C1CCC(N2Cc3cc(NC(=O)N4CCc5cccc(Cl)c54)ccc3C2=O)C(=O)N1` (stereo not shown) [Compound 152, 7-chloro-N-(2-(2,6-dioxopiperidin-3-yl)-1-oxoisoindolin-5-yl) indoline-1-carboxamide] displayed a DC50 at CK1α of under 0.1 µM. Moreover, the pIC50 on CRBN/DDB1 is 6.00 to 7.00.

In turn, `N#Cc1cccc2c1N(C(=O)Nc1ccc3c(c1)CN(C1CCC(=O)NC1=O)C3=O)CC2` (stereo not shown) [Compound 147, 7-cyano-N-(2-(2,6-dioxopiperidin-3-yl)-1-oxoisoindolin-5-yl)indoline-1-carboxamide] had a DC50 on CK1α of over 1 µM. At CRBN/DDB1, the pIC50 was 6.00 to 7.00.
